Tested on: E. coli 31
Assay: In vitro antibacterial activity (MIC), two-fold agar-plate dilution method
Assay type: cell-based
Details: Escherichia coli; test strain E. coli 31; heart infusion agar; incubation at 37°C for 20 hours; inoculum 10^8 viable cells per ml
Experimental: In vitro antibacterial activity was determined by the two-fold agar-plate dilution method as described below. One loopful of an overnight culture of each test strain in Trypticase-soy broth (10^8 viable cells per ml) was streaked on heart infusion agar (HI-agar) containing graded concentrations of representative test compound, and the minimal inhibitory concentration (MIC) was expressed in terms of µg/mℓ after incubation at 37°C for 20 hours.

MIC: ≤ 0.025 µg/mL
SMILES: CON=C(C(=O)NC1C(=O)N2C(C(=O)[O-])=C(C[n+]3ccc4n3CCN4)CSC12)c1csc(N)n1 (stereo not shown) [(1)]
